Legend:
[1] = target: T1, Cytochrome P450 2A5 (Mus musculus, UniProt P20852); experiment: Inhibitory concentration against mouse cytochrome P450 2A5
T1 sequence (P20852 whole entry): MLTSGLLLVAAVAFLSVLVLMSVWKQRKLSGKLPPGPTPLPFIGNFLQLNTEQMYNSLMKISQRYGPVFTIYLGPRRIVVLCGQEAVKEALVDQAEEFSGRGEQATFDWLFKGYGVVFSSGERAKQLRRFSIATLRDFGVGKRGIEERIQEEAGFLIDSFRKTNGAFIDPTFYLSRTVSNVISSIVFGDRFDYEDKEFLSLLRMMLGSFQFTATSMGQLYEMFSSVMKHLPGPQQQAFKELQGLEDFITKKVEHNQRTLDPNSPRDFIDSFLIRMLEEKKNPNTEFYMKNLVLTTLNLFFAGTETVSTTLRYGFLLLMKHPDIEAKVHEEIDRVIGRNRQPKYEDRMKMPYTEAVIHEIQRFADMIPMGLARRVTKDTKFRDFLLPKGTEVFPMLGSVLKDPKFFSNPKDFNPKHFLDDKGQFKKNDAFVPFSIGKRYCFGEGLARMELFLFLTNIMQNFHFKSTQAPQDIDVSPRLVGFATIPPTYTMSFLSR

[2] = target: T2, Cytochrome P450 2A6 (Homo sapiens, UniProt P11509); experiment: Inhibitory concentration against human cytochrome P450 2A6
T2 sequence (P11509 whole entry): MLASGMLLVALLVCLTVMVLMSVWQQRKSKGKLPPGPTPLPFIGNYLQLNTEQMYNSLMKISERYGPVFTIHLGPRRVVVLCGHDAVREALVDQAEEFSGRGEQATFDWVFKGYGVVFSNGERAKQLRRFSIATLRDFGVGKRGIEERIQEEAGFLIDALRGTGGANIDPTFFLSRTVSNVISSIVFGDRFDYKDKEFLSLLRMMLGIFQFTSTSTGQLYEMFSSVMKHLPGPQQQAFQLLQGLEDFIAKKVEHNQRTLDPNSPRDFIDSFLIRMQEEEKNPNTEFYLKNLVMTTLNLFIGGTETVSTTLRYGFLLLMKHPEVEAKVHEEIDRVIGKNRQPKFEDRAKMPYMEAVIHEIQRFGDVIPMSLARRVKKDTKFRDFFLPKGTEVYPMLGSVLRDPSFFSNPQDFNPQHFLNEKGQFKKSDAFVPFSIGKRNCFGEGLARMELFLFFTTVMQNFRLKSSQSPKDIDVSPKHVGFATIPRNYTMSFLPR

[3] = system: CYP2A6 / CYP2A5; experiment: Ratio of IC50 for human CYP2A6 to that of mouse CYP2A5 was determined
[4] = target: T3, CYP2A6 (Homo sapiens, UniProt P11509); experiment: Michaelis-Menten constant of compound against human cytochrome P450 2A6 enzyme; format: ADME
T3 sequence (P11509 whole entry): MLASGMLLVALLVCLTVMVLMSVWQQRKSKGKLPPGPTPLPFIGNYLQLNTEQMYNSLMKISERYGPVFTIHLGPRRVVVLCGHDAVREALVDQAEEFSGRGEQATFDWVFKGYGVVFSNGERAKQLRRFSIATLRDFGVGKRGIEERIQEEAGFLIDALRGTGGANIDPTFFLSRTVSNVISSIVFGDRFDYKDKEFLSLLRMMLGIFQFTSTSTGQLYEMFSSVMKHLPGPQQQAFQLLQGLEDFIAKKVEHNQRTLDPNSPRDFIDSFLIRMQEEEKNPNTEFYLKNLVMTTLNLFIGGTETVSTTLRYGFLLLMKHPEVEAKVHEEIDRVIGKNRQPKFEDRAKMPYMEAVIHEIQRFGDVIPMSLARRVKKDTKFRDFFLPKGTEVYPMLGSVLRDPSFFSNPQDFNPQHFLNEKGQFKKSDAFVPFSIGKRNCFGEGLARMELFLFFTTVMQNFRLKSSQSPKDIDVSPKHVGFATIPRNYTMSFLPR

[5] = substrate: O=c1ccc2ccccc2o1; experiment: Michaelis-Menten constant of compound against mouse cytochrome P450 2A5 enzyme; format: ADME

Molecule: COc1ccc(C=O)cc1 [ANISALDEHYDE]
- IC50 [1]: 5.9 µM
- IC50 [2]: 7.1 µM

Molecule: c1ccc2ccccc2c1 [NAPHTHALENE]
- selectivity ratio [3]: 0.34
- IC50 [1]: 74 µM
- IC50 [2]: 25 µM

Molecule: Brc1ccc2ccccc2c1
- selectivity ratio [3]: 0.22
- IC50 [1]: 2.5 µM
- IC50 [2]: 0.55 µM

Molecule: Cc1ccc2ccc(C)cc2c1
- IC50 [1]: 1.4 µM
- IC50 [2]: 1.7 µM

Molecule: CCc1ccc2ccccc2c1
- selectivity ratio [3]: 2.4
- IC50 [1]: 4.8 µM
- IC50 [2]: 12 µM

Molecule: COc1cc2c(cc1OC)CC(=O)CC2
- selectivity ratio [3]: 9.2
- IC50 [1]: 210 µM
- IC50 [2]: 2000 µM

Molecule: CC(=O)c1ccc2ccc(C)cc2c1
- selectivity ratio [3]: 1.6
- IC50 [1]: 4.1 µM
- IC50 [2]: 6.7 µM

Molecule: O=c1ccc2ccccc2o1 [COUMARIN]
- Km [4]: 0.74 µM

Molecule: Cc1ccc2ccc(C)nc2c1
- selectivity ratio [3]: 2.2
- IC50 [1]: 180 µM
- IC50 [2]: 400 µM

Molecule: Fc1ccc2ccccc2c1
- selectivity ratio [3]: 0.09
- IC50 [1]: 7.3 µM
- IC50 [2]: 0.67 µM

Molecule: Clc1cc2cc(Cl)c(Cl)c(Cl)c2cc1Cl
- IC50 [1]: 300 µM
- IC50 [2]: > 600 µM

Molecule: CN1C(=O)CCC1c1cccnc1 (single isomer, unassigned) [COTININE]
- selectivity ratio [3]: 42.8
- IC50 [1]: 1500 µM

Molecule: Clc1ccccc1-c1ccccc1
- selectivity ratio [3]: 2.8
- IC50 [1]: 13 µM
- IC50 [2]: 36 µM

Molecule: Cc1cc(C)c2ccccc2n1
- selectivity ratio [3]: 7.7
- IC50 [1]: 110 µM
- IC50 [2]: 830 µM

Molecule: Cc1ccc2ccccc2c1
- selectivity ratio [3]: 0.34
- IC50 [1]: 7 µM
- IC50 [2]: 2.4 µM

Molecule: O=Cc1ccccc1 [BENZALDEHYDE]
- IC50 [1]: 3.28 µM
- IC50 [2]: 3.92 µM

Molecule: Clc1ccc(-c2ccccc2)cc1
- selectivity ratio [3]: 8.2
- IC50 [1]: 18 µM
- IC50 [2]: 150 µM

Molecule: Clc1ccc2ccccc2c1
- selectivity ratio [3]: 0.45
- IC50 [1]: 12 µM
- IC50 [2]: 5.4 µM

Molecule: Brc1ccc(Br)cc1
- selectivity ratio [3]: 48.5
- IC50 [1]: 2.2 µM
- IC50 [2]: 59 µM

Molecule: NCCc1ccccc1 [PHENETHYLAMINE]
- IC50 [1]: 1000 µM
- IC50 [2]: 38.9 µM

Molecule: CC(N)Cc1ccccc1 (stereo not drawn) [AMPHETAMINE]
- IC50 [1]: 2.85 µM
- IC50 [2]: 3.5 µM

Molecule: Cc1ccc(CCN)cc1
- IC50 [1]: 4 µM
- IC50 [2]: 5.3 µM

Molecule: O=C1CCCc2ccccc21
- selectivity ratio [3]: 3.6
- IC50 [1]: 14 µM
- IC50 [2]: 52 µM

Molecule: Clc1ccc(Cl)cc1 [1,4-DICHLOROBENZENE]
- selectivity ratio [3]: 30.4
- IC50 [1]: 1 µM
- IC50 [2]: 17 µM

Molecule: Cc1cc2ccccc2cn1
- selectivity ratio [3]: 5.1
- IC50 [1]: 4.8 µM
- IC50 [2]: 25 µM

Molecule: Oc1ccc2ccccc2c1 [BETANAPHTHOL]
- selectivity ratio [3]: 1.8
- IC50 [1]: 78 µM
- IC50 [2]: 140 µM

Molecule: CN1CCC[C@@H]1c1cccnc1 [R-NICOTINE]
- selectivity ratio [3]: 3.8
- IC50 [1]: 160 µM
- IC50 [2]: 580 µM

Molecule: Cc1ccc2cccc(C)c2c1
- selectivity ratio [3]: 1.2
- IC50 [1]: 14 µM
- IC50 [2]: 31 µM

Molecule: Cc1ccc2c(C)cccc2c1
- selectivity ratio [3]: 4
- IC50 [1]: 32 µM
- IC50 [2]: 130 µM

Molecule: Clc1cccc2ccccc12
- selectivity ratio [3]: 1.3
- IC50 [1]: 14 µM
- IC50 [2]: 18 µM

Molecule: Clc1ccc2ccccc2c1Cl
- IC50 [1]: 5.5 µM
- IC50 [2]: 15 µM

Molecule: c1ccc2c(c1)ccc1ccccc12 [PHENANTHRENE]
- selectivity ratio [3]: 4
- IC50 [1]: 26 µM
- IC50 [2]: 97 µM

Molecule: O=C1CCc2ccccc2C1
- selectivity ratio [3]: 2.2
- IC50 [1]: 9.7 µM
- IC50 [2]: 21 µM

Molecule: Cc1ccc(C=O)cc1
- IC50 [1]: 20.9 µM

Molecule: Cc1ccc2cc(C)ccc2c1
- selectivity ratio [3]: 5.9
- IC50 [1]: 1.7 µM
- IC50 [2]: 10 µM

Molecule: Cc1cnc2ccccc2c1
- selectivity ratio [3]: 1.9
- IC50 [1]: 100 µM
- IC50 [2]: 200 µM

Molecule: Cc1cccc2ccccc12
- selectivity ratio [3]: 1.4
- IC50 [1]: 24 µM
- IC50 [2]: 34 µM

Molecule: Oc1cccc2ccccc12 [1-NAPHTHOL]
- selectivity ratio [3]: 0.96
- IC50 [1]: 140 µM
- IC50 [2]: 130 µM

Molecule: Cc1cccc2c(C)cccc12
- selectivity ratio [3]: 0.91
- IC50 [1]: 34 µM
- IC50 [2]: 31 µM

Molecule: Clc1ccc2ccc(Cl)cc2c1
- IC50 [1]: 4.4 µM
- IC50 [2]: > 100 µM

Molecule: Clc1cc2ccccc2cc1Cl
- IC50 [1]: 60 µM
- IC50 [2]: > 60 µM

Molecule: Clc1cccc2c(Cl)cccc12
- selectivity ratio [3]: 1.04
- IC50 [1]: 2.4 µM
- IC50 [2]: 2.5 µM

Molecule: Cc1nccc2ccccc12
- selectivity ratio [3]: 0.36
- IC50 [1]: 170 µM
- IC50 [2]: 60 µM

Molecule: Cc1ccc2ccccc2n1 [QUINALDINE]
- selectivity ratio [3]: 2.4
- IC50 [1]: 80 µM
- IC50 [2]: 190 µM

B1: Cytochrome P450 2A5 (Mus musculus) (protein)
chain: MLTSGLLLVAAVAFLSVLVLMSVWKQRKLSGKLPPGPTPLPFIGNFLQLNTEQMYNSLMKISQRYGPVFTIYLGPRRIVVLCGQEAVKEALVDQAEEFSGRGEQATFDWLFKGYGVVFSSGERAKQLRRFSIATLRDFGVGKRGIEERIQEEAGFLIDSFRKTNGAFIDPTFYLSRTVSNVISSIVFGDRFDYEDKEFLSLLRMMLGSFQFTATSMGQLYEMFSSVMKHLPGPQQQAFKELQGLEDFITKKVEHNQRTLDPNSPRDFIDSFLIRMLEEKKNPNTEFYMKNLVLTTLNLFFAGTETVSTTLRYGFLLLMKHPDIEAKVHEEIDRVIGRNRQPKYEDRMKMPYTEAVIHEIQRFADMIPMGLARRVTKDTKFRDFLLPKGTEVFPMLGSVLKDPKFFSNPKDFNPKHFLDDKGQFKKNDAFVPFSIGKRYCFGEGLARMELFLFLTNIMQNFHFKSTQAPQDIDVSPRLVGFATIPPTYTMSFLSR
- Km [5]: 0.64 µM

Source: ChEMBL document CHEMBL1141174, “Quantitative structure-activity relationship analysis of inhibitors of the nicotine metabolizing CYP2A6 enzyme” (J Med Chem, 2005)
